Results taken from patent EP4818168A1, “FUSED RING COMPOUND, PHARMACEUTICAL COMPOSITION THEREOF AND USE THEREOF” (priority 2023, dated 2025).

What follows are molecules tested on H82 cells (assay: cells). Settings: Homo sapiens, NCI-H82, read-out: IC50 in H82 Cells.
Type: cell-based
Description: CellTiter-Glo (CTG) is a rapid cell viability test method based on ATP detection. […] Adenosine triphosphate (ATP) participates in various enzymatic reactions in organisms and is an indicator of living cell metabolism. Its content directly reflects the number of living cells and cell status. During the experiment, equal volume of CTG reagent is added to the cultured cells to measure the luminescence value. The chemiluminescent signal value is proportional to the amount of ATP, thus reflecting the number of viable cells. Therefore, cell viability can be obtained by detecting the ATP content. Compounds that affect cell viability will inhibit cell viability in a concentration-dependent manner, allowing a curve to be fitted to obtain the IC50 value.
The experimental procedure is as follows: • 11. Place the cell suspension in a 15 mL centrifuge tube, centrifuge at 1000 rpm for 5 min at room temperature, discard the supernatant, and collect the cell pellet. • 12. Resuspend the cell pellet with preheated complete cell culture medium (RPMI1640+10%FBS+1%PS), and use a Countess® automated cell counter to detect cell viability and density. […] Transfer the compound solution to a 96-well plate seeded with cells (final concentration of DMSO 0.1%), and place in a cell incubator at 37°C, 5% CO2 for 6 days. • 15. […] Protect from light during the whole process. Perform optical signal readings using a SpectraMax i3x reader. • 16. Data analysis: Remaining activity (%) = 100% * (1 - ((LumDMSO - Lummedium) - Lumsample) / (LumDMSO - LumPBS/medium)). Use GraphPad Prism 9.0 software to draw an S-shaped dose-survival rate curve and calculate the IC50 value using a nonlinear regression model.

Row | SMILES | IC50
1 | O=C1CCN(c2cncc(N3CC(CN4CCc5ccc(Nc6ncc7c(n6)-c6ccc(Cl)cc6C(c6c(F)cccc6F)=NC7)cc5C4)C3)c2)C(=O)N1 [Compound A209] | < 1000 nM
2 | O=C1CCN(c2ccc(N3CCC(N4CCN(c5ccc(Nc6ncc7c(n6)-c6ccc(Cl)cc6C(c6nccs6)=NC7)cc5)C(=O)C4)CC3)nc2)C(=O)N1 [Compound A282] | < 1000 nM
3 | O=C1CCN(c2cccc(N3CCN(CC#Cc4cccc(Nc5ncc6c(n5)-c5ccc(Cl)cc5C(c5c(F)cccc5F)=NC6)c4)CC3)c2)C(=O)N1 [Compound A98] | < 1000 nM

Same assay, conditions: Homo sapiens, NCI-H82; H82 cells, 4000 cells/well, CellTiter-Glo; read-out: IC50 in H82 Cells

Row | SMILES | IC50
4 | O=C1CCN(c2ccc(N3CCN(CCN4Cc5cc(Nc6ncc7c(n6)-c6ccc(Cl)cc6C(c6c(F)cccc6F)=NC7)ccc5C4=O)CC3)cc2)C(=O)N1 [Compound A158] | < 1000 nM
5 | N#Cc1ccc2c(c1)C(c1c(F)cccc1F)=NCc1cnc(Nc3ccc(N4CCN(C5CCN(c6ccc(N7CCC(=O)NC7=O)cn6)CC5)CC4=O)cc3)nc1-2 [Compound A305] | < 1000 nM
6 | COc1cccc(F)c1C1=NCc2cnc(Nc3ccc(N4CCN(C5COC6(CCN(c7ccc(N8CCC(=O)NC8=O)cn7)CC6)C5)CC4)cc3)nc2-c2ccc(Cl)cc21 (stereo not shown) [Compound A363] | < 1000 nM
7 | Cn1nc(N2CCC(=O)NC2=O)c2cc(F)c(N3CCN(C4CN(c5cccc(Nc6ncc7c(n6)-c6ccc(Cl)cc6C(c6c(F)cccc6F)=NC7)c5)C4)CC3)cc21 [Compound A244] | < 1000 nM
8 | O=C1CCN(c2ccc(N3CCC4(CC3)CC(NC(=O)c3ccc(Nc5ncc6c(n5)-c5ccc(C7CC7)cc5C(c5c(F)cccc5F)=NC6)cc3)C4)nc2)C(=O)N1 [Compound A115] | < 1000 nM
9 | O=C1CCN(c2cccc(C#CCN3CCn4c(cnc4-c4ccc(Nc5ncc6c(n5)-c5ccc(Cl)cc5C(c5c(F)cccc5F)=NC6)cc4)C3)c2)C(=O)N1 [Compound A145] | < 1000 nM

What follows are molecules tested against T1, AURKA (Homo sapiens, UniProt O14965) (assay: not given). Settings: not given.
T1 construct: endogenous in cells; host or cells: Jurkat cells
T1 sequence (O14965 1-403): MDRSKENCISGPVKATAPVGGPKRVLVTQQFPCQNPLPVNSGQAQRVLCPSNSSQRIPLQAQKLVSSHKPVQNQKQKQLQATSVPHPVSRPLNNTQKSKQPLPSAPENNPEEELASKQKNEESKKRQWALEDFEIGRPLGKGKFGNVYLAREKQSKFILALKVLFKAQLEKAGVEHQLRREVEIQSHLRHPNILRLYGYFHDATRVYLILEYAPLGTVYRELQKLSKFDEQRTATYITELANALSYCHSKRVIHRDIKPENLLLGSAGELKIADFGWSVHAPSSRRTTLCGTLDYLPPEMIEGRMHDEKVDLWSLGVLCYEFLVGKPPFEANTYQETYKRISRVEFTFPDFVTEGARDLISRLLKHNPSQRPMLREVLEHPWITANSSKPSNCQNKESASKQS
Type: cell-based
Description: WB is a classical biochemical experimental method used to detect the abundance of a target protein in a sample of cells or biological tissue. It relies on specific antigen-antibody binding to detect protein signals from the sample processed by gel electrophoresis: the protein specifically binds to a primary antibody at an epitope; the primary antibody is then conjugated with a secondary antibody to amplify the signal cascade; the signal is read out by chemiluminescent or fluorescent detection. The intracellular protein content is ultimately characterized by the intensity of the optical signals. […] The DC50 value can be calculated by curve fitting of the protein WB exposure signals.
The experimental procedure is as follows: • 1. Seed Jurkat cells into a 12-well plate at 1×10^6 cells/500 µL/well. • 2. Mix the culture medium with the compound to a concentration that is twice the desired final concentration. […] Transfer the cell suspension to a centrifuge tube. Rinse the 12-well plate with PBS and then transfer the PBS from the plate to the same centrifuge tube. Centrifuge at 3000 rpm for 5 min at room temperature. Aspirate the supernatant using a vacuum pump. […] Lyse on ice for 20 min. • 4. Centrifuge the lysed sample at 13000 rpm for 20 min at 4°C. Mix the supernatant with 5× protein loading buffer. Boil at 100°C for 5 min and then cool. Store the denatured protein sample at -20°C. • 5. […] Run electrophoresis at 80 V for 20 min, and then at 120 V constant voltage for 60 min. • 6. Transfer the protein onto a nitrocellulose membrane in an ice bath at 250 mA constant current for 90 min. • 7. […] Incubate with a primary antibody overnight at 4°C. • 9. […] Incubate with a secondary antibody for 1-2 h at room temperature. • 10. […] Expose and image the membrane using a LICOR Odyssey DLx imager.

Row | SMILES | Percentage of AURKA Degradation Induced by 100 nM Compound in Jurkat Cells | Percentage of AURKA Degradation Induced by 1 µM Compound in Jurkat Cells
10 | O=C1CCN(c2ccc(N3CCC(N4CCN(c5ccc(Nc6ncc7c(n6)-c6ccc(Cl)cc6C(c6nccs6)=NC7)cc5)C(=O)C4)CC3)nc2)C(=O)N1 [Compound A282] | +++ (key: +: Degradation ≤ 30%; ++: 30% < Degradation ≤ 70%; +++: Degradation > 70%) | +++ (key: +: Degradation ≤ 30%; ++: 30% < Degradation ≤ 70%; +++: Degradation > 70%)

Same assay, conditions: 100 nM compound, Jurkat cells, 24 h, Table 1

Row | SMILES | Percentage of AURKA Degradation Induced by 100 nM Compound in Jurkat Cells
11 | O=C1CCN(c2cccc(N3CC4(CC(NC(=O)c5ccc(Nc6ncc7c(n6)-c6ccc(Cl)cc6C(c6c(F)cccc6F)=NC7)cc5)C4)C3)c2)C(=O)N1 [Compound A62] | ++ (30% < Degradation ≤ 70%)

Same assay, conditions: 100 nM compound, Jurkat cells, 24 h, Table 2

Row | SMILES | Percentage of AURKA Degradation Induced by 100 nM Compound in Jurkat Cells
12 | O=C1CCN(c2cncc(N3CC(CN4CCc5ccc(Nc6ncc7c(n6)-c6ccc(Cl)cc6C(c6c(F)cccc6F)=NC7)cc5C4)C3)c2)C(=O)N1 [Compound A209] | +++ (Degradation > 70%)
13 | O=C1CCN(c2ccc(N3CCN(CCN4Cc5cc(Nc6ncc7c(n6)-c6ccc(Cl)cc6C(c6c(F)cccc6F)=NC7)ccc5C4=O)CC3)cc2)C(=O)N1 [Compound A158] | ++ (30% < Degradation ≤ 70%)
14 | N#Cc1ccc2c(c1)C(c1c(F)cccc1F)=NCc1cnc(Nc3ccc(N4CCN(C5CCN(c6ccc(N7CCC(=O)NC7=O)cn6)CC5)CC4=O)cc3)nc1-2 [Compound A305] | +++ (Degradation > 70%)
15 | COc1cccc(F)c1C1=NCc2cnc(Nc3ccc(N4CCN(C5COC6(CCN(c7ccc(N8CCC(=O)NC8=O)cn7)CC6)C5)CC4)cc3)nc2-c2ccc(Cl)cc21 (stereo not shown) [Compound A363] | +++ (Degradation > 70%)
16 | Cn1nc(N2CCC(=O)NC2=O)c2cc(F)c(N3CCN(C4CN(c5cccc(Nc6ncc7c(n6)-c6ccc(Cl)cc6C(c6c(F)cccc6F)=NC7)c5)C4)CC3)cc21 [Compound A244] | ++ (30% < Degradation ≤ 70%)
17 | O=C1CCN(c2ccc(N3CCC4(CC3)CC(NC(=O)c3ccc(Nc5ncc6c(n5)-c5ccc(C7CC7)cc5C(c5c(F)cccc5F)=NC6)cc3)C4)nc2)C(=O)N1 [Compound A115] | +++ (Degradation > 70%)

Same assay, conditions: 1 µM compound, Jurkat cells, 24 h, Table 1

Row | SMILES | Percentage of AURKA Degradation Induced by 1 µM Compound in Jurkat Cells
18 | O=C1CCN(c2cccc(N3CC4(CC(NC(=O)c5ccc(Nc6ncc7c(n6)-c6ccc(Cl)cc6C(c6c(F)cccc6F)=NC7)cc5)C4)C3)c2)C(=O)N1 [Compound A62] | ++ (30% < Degradation ≤ 70%)

Same assay, conditions: 1 µM compound, Jurkat cells, 24 h, Table 2

Row | SMILES | Percentage of AURKA Degradation Induced by 1 µM Compound in Jurkat Cells
19 | O=C1CCN(c2cncc(N3CC(CN4CCc5ccc(Nc6ncc7c(n6)-c6ccc(Cl)cc6C(c6c(F)cccc6F)=NC7)cc5C4)C3)c2)C(=O)N1 [Compound A209] | +++ (Degradation > 70%)
20 | O=C1CCN(c2ccc(N3CCN(CCN4Cc5cc(Nc6ncc7c(n6)-c6ccc(Cl)cc6C(c6c(F)cccc6F)=NC7)ccc5C4=O)CC3)cc2)C(=O)N1 [Compound A158] | + (Degradation ≤ 30%)
21 | N#Cc1ccc2c(c1)C(c1c(F)cccc1F)=NCc1cnc(Nc3ccc(N4CCN(C5CCN(c6ccc(N7CCC(=O)NC7=O)cn6)CC5)CC4=O)cc3)nc1-2 [Compound A305] | +++ (Degradation > 70%)
22 | COc1cccc(F)c1C1=NCc2cnc(Nc3ccc(N4CCN(C5COC6(CCN(c7ccc(N8CCC(=O)NC8=O)cn7)CC6)C5)CC4)cc3)nc2-c2ccc(Cl)cc21 (stereo not shown) [Compound A363] | +++ (Degradation > 70%)
23 | Cn1nc(N2CCC(=O)NC2=O)c2cc(F)c(N3CCN(C4CN(c5cccc(Nc6ncc7c(n6)-c6ccc(Cl)cc6C(c6c(F)cccc6F)=NC7)c5)C4)CC3)cc21 [Compound A244] | +++ (Degradation > 70%)
24 | O=C1CCN(c2ccc(N3CCC4(CC3)CC(NC(=O)c3ccc(Nc5ncc6c(n5)-c5ccc(C7CC7)cc5C(c5c(F)cccc5F)=NC6)cc3)C4)nc2)C(=O)N1 [Compound A115] | +++ (Degradation > 70%)
